Results on 13 molecules are retold here after patent US10981879B2, “Thioether triazolopyridine and triazolopyrimidine inhibitors of myeloperoxidase” (BRISTOL-MYERS SQUIBB COMPANY, priority 2014, dated 2021).

What all share (assay type): biochemical
The target in assay [1] is T1, myeloperoxidase (MPO) (Homo sapiens (Human), UniProt P05164). Briefly: MPO peroxidation assay (Amplex Red). The note with it: Table 1. How it is done:
MPO peroxidation activity was measured in 100 mM KPi (pH 7.4) by utilizing the non-fluorescent reagent Amplex Red (Invitrogen catalog #A12222) which can be oxidized to the highly fluorescent resorufin. Amplex Red is oxidized by the peroxidase action of MPO to resorufin. Reactions were carried out in 50 μL total volume by adding a 25 μL mixture of 200 pM myeloperoxidase and 40 nM H2O2 (Sigma #349887) to 100 nL inhibitor in 100% DMSO in a 384 well Perkin Elmer Optiplate. Enzyme and compound were preincubated for ten minutes at rt.
After the ten minute preincubation, 25 μL of an Amplex Red mixture containing 200 μM Amplex Red and 10 mM H2O2 was added to the plate. Kinetic determinations were carried out immediately on a Perkin Elmer Envision (15 minute kinetic read, Ex: 535 nm, Em: 590 nm).
IC50 values were calculated by determining the slope of the linear portion of the kinetic trace (180-540 secs), and using that calculated slope to determine % inhibition occurring at each concentration of inhibitor using the following equation:
[formula] where A=minimal Y value (activity level of inhibited sample), B=maximal Y value (activity level of uninhibited sample), C=Log IC50, D=Hill Slope, x=concentration of inhibitor. MPO Chlorination Assay

The target of assay [2] is T1, myeloperoxidase (MPO). The experiment in a line: MPO chlorination assay (APF). The procedure, abridged: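 Human MPO (200 pM) with 120 mM NaCl preincubated with inhibitor 10 minutes at rt in 100 mM KPi pH 7.4. Reaction started with APF mixture containing 10 μM H2O2; fluorescein fluorescence (ex 485/em 535 nm) read kinetically 3 minutes. IC50 from slopes of linear kinetic portion, fitted with a four-parameter Hill equation.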

The target of assay [3] is eosinophil peroxidase (EPX) (Homo sapiens (Human), UniProt P11678). Briefly: EPX bromination assay. The procedure: EPX bromination activity was measured in 100 mM KPi (pH 7.4) by monitoring the H2O2 catalyzed formation of 3-bromo tyrosine from tyrosine and potassium bromide. A 50 μl mixture of 0.6 μM EPX (Lee Biosolutions Cat #342-60) was added to 100 nL inhibitor in 100% DMSO in a 384 well REMP plate. Enzyme and compound were preincubated for ten minutes at rt.
After the ten minute preincubation of enzyme and inhibitor, 25 μL of a mixture containing 400 μM tyrosine and 1200 μM potassium bromide was added to the plate containing enzyme and inhibitor, followed by the addition of 25 μl of 20 μM H2O2. The reaction was allowed to proceed for 15 minutes, at which time it was quenched with 10 μL of 20% TCA. The final concentrations of all components were 0.3 μM EPX, 100 μM tyrosine, […], 5 μM H2O2, 0.1% DMSO, 2.0% TCA.
IC50 values were determined by determining the peak areas of 3-bromotyrosine present at the end of the 15 minute reaction and fitting the data to:
[formula] where A=minimal Y value (activity level of inhibited sample), B=maximal Y value (activity level of uninhibited sample), C=Log IC50, D=Hill Slope, x=concentration of inhibitor.
Reversed-phase analysis was performed on a Waters Acquity Ultra Performance LC system using an Acquity UPLC BEH C18 […], 2.1×50 mm analytical column. The column was maintained at 60° C. Samples were eluted using a gradient of 0%-100% B over 2.5 minutes, followed by equilibration with 100% A for 1 minute where A consisted of 0.1% TFA and B consisted of 90% MeOH/0.1% TFA at a flow rate of 0.6 mL/min. The retention time of 3-bromo tyrosine was 1.22 min.

Where [4] appears, read: MPO chlorination assay (APF), Table 1, read-out: APF IC50.
Where [5] appears, read: MPO chlorination assay, ranges given, read-out: MPO chlorination assay IC50.

What is called IC50 is the concentration that inhibits the measured activity by half.

eosinophil peroxidase (EPX), sequence (P11678 251-715): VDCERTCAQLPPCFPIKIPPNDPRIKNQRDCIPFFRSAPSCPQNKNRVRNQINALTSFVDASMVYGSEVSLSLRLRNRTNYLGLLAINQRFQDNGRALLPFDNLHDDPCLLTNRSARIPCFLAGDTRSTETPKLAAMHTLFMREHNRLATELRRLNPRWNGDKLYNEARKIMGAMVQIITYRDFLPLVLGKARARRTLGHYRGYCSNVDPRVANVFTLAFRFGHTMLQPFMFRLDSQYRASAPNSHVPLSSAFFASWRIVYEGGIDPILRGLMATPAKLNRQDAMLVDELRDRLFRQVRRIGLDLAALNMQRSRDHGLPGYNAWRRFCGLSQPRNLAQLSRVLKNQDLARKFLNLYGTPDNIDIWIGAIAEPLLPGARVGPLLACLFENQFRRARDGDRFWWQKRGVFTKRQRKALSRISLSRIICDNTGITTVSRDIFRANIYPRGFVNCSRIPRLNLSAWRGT
eosinophil peroxidase (EPX), sequence (P11678 140-250): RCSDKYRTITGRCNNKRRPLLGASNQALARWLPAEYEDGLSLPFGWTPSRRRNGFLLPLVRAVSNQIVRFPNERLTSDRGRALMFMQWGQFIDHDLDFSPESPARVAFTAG
T1 sequence (P05164 49-745): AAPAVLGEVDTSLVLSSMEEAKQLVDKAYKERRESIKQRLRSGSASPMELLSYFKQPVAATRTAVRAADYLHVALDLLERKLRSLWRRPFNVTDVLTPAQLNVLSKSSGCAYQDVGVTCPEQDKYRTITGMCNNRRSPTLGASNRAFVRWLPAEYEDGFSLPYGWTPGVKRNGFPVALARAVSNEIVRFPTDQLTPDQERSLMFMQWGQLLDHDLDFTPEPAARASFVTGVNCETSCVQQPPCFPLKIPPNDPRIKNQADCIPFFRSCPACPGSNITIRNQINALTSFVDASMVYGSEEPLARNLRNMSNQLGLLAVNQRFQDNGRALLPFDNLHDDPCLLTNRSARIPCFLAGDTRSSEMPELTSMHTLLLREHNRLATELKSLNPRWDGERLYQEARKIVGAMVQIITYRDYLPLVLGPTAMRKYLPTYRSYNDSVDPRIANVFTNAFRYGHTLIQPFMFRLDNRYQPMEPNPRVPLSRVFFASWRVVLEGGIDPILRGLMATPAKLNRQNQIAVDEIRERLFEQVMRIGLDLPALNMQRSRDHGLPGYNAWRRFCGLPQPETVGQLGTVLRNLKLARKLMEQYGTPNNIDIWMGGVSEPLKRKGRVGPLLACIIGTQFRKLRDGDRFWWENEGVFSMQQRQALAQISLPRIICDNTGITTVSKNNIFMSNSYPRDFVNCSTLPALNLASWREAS

As to `CC(Sc1cc(N)nc2[nH]nnc12)c1ccccc1` (stereo not drawn) [Example 2, 7-((1-phenylethyl)thio)-3H-[1,2,3]triazolo[4,5-b]pyridin-5-amine], the 50% inhibitory concentration (IC50) stood at 10 nM on myeloperoxidase (MPO) [1], 10 nM at myeloperoxidase (MPO) [2] (setting [4]) and 1 nM in assay [3].
In the case of `Nc1cc(SCc2ccc(OC(F)(F)F)cc2)c2nn[nH]c2n1` [Example 7, 7-((4-(trifluoromethoxy)benzyl)thio)-3H-[1,2,3] triazolo[4,5-b]pyridin-5-amine], the IC50 was not above 60 nM on myeloperoxidase (MPO) [2] (setting [5]) and 20 nM in assay [3].
For `Nc1cc(SCc2c(Cl)cccc2Cl)c2nn[nH]c2n1` [Example 11, 7-((2,6-Dichlorobenzyl)thio)-3H-[1,2,3]triazolo[4,5-b]pyridin-5-amine], the IC50 is not above 60 nM at myeloperoxidase (MPO) [2] (setting [5]) and 2 nM in assay [3].
As to `Cn1ncc2c(CSc3cc(N)nc4[nH]nnc34)cccc21` [Example 51, 7-(((1-methyl-1H-indazol-4-yl)methyl)thio)-3H-[1,2,3] triazolo[4,5-b]pyridin-5-amine], the figures for the IC50 (on myeloperoxidase (MPO) [2] (setting [5]); in assay [3]) were 60 to 200 nM and 6 nM, respectively.
On to `CS(=O)(=O)c1ccc(CSc2cc(N)nc3[nH]nnc23)c(Cl)c1` [Example 104, 7-((2-chloro-4-(methylsulfonyl)benzyl)thio)-3H-[1,2,3]triazolo[4,5-b]pyridin-5-amine], for which the IC50 came out at 10 nM on myeloperoxidase (MPO) [1] and 90 nM on myeloperoxidase (MPO) [2] (setting [4]).
Turning to `Nc1cc(SCc2cn(-c3ccccc3)nc2C(F)(F)F)c2nn[nH]c2n1` [Example 113, 7-(((1-phenyl-3-(trifluoromethyl)-1H-pyrazol-4-yl)methyl)thio)-3H-[1,2,3]triazolo[4,5-b] pyridin-5-amine], the values for the IC50 against myeloperoxidase (MPO) [1] and at myeloperoxidase (MPO) [2] (setting [4]) were 20 nM and 10 nM, respectively.
As for `Nc1cc(SCc2cnn(C3CCCCC3)c2C(F)(F)F)c2nn[nH]c2n1` [Example 116, 7-(((1-cyclohexyl-5-(trifluoromethyl)-1H-pyrazol-4-yl)methyl)thio)-3H-[1,2,3]triazolo[4,5-b] pyridin-5-amine], the 50% inhibitory concentration (IC50) amounted to 100 nM at myeloperoxidase (MPO) [1] and 530 nM at myeloperoxidase (MPO) [2] (setting [4]).
For the molecule `Nc1cc(SC(CO)c2ccccc2)c2nn[nH]c2n1` (stereo not drawn) [Example 126, 2-((5-Amino-3H-[1,2,3]triazolo[4,5-b]pyridin-7-yl)thio)-2-phenylethanol], the IC50 at myeloperoxidase (MPO) [1] amounted to 20 nM; at myeloperoxidase (MPO) [2] (setting [4]), 80 nM.
Consider `Nc1cc(SCc2cn(-c3ccc(N4CCCC4)nc3)nc2C(F)(F)F)c2nn[nH]c2n1` [Example 139], for which the IC50 at myeloperoxidase (MPO) [1] stood at 170 nM; on myeloperoxidase (MPO) [2] (setting [4]), 10 nM.
With `Nc1cc(SCc2cn(-c3cccnn3)nc2C(F)F)c2nn[nH]c2n1` [Example 144], the 50% inhibitory concentration (IC50) worked out at 40 nM against myeloperoxidase (MPO) [1] and 80 nM on myeloperoxidase (MPO) [2] (setting [4]).
The like results for `Nc1cc(SCc2cn(-c3cnccn3)nc2C(F)F)c2nn[nH]c2n1` [Example 145] were, in that order, 30 nM and 80 nM.
With `CCn1ncc(CSc2nc(N)nc3[nH]nnc23)c1C(F)(F)F` [Example 164, 7-(((1-ethyl-5-(trifluoromethyl)-1H-pyrazol-4-yl)methyl)thio)-3H-[1,2,3]triazolo[4,5-d] pyrimidin-5-amine], the IC50 came out at 220 nM against myeloperoxidase (MPO) [1] and 770 nM on myeloperoxidase (MPO) [2] (setting [4]).
Turning to `Nc1nc(SCc2ccccc2CN2CCCC2)c2nn[nH]c2n1` [Example 166, 7-((2-(pyrrolidin-1-ylmethyl)benzyl)thio)-3H-[1,2,3]triazolo[4,5-d] pyrimidin-5-amine], the concentration for half-maximal inhibition (IC50) against myeloperoxidase (MPO) [1] was 790 nM; on myeloperoxidase (MPO) [2] (setting [4]) it was 570 nM.
